A short description of series [1]: RP-TLC hydrophobicity assay (RP-18 plates, methanol/phosphate-buffered saline). Format: physicochemical. The conditions noted are these: extrapolated to pure phosphate-buffered saline. As for the experimental part: In reversed-phase chromatography, retention of analytes is governed by hydrophobicity, and this parameter was evaluated using both TLC and HPLC techniques. Due to high affinity of investigated compounds for octadecylsilane chemically bonded to porous silica applied on chromatographic plates, several analyses with mixtures of phosphate-buffered saline with various concentrations of methanol as mobile phase were performed. […] RM values were obtained according to Equation (1):(1) RM=log(1/RF−1), where RF represents the retention factor. Furthermore, chromatographic parameter of hydrophobicity, RMw, was obtained by extrapolation to pure buffer using the linear Equation (2):(2) RM = RMw − SΦ, where S is the slope of the regression line and φ is the concentration (expressed as volume fraction) of methanol.
TLC experiments were performed on commercially available 10 × 10 cm RP-18 TLC plates (Merck, Darmstadt, Germany). Methanol-phosphate-buffered saline mixtures were used as mobile phases. The methanol volume fraction was varied from 20% to 80% in 5% steps. A sufficient amount of mobile phase was placed in a Camag flat-bottom chamber for 10 × 10 cm plates with a stainless-steel lid to have a level of 5 mm. After saturation of chambers with solvent vapor for 30 min, the plates were developed to a distance of 9 cm at room temperature, dried in open air for 5 min and visualized under λ = 254 nm UV light.

A short description of series [2]: RP-HPLC hydrophobicity assay (Symmetry C18 column, methanol/phosphate-buffered saline). Format: physicochemical. The conditions noted are these: extrapolated to pure phosphate-buffered saline, 25 °C. The source says:
The obtained retention times, tR, were used to calculate log k values according to Equation (3): (3) logk=logtR−t0/t0, with t0 being the retention time of an unretained solute, sodium nitrate. Furthermore, chromatographic parameter of hydrophobicity, log kw C18, was obtained by extrapolation to pure buffer using the linear Equation (4):(4) logk = logkw − SΦ, where S is the slope of the regression line and φ is the concentration (expressed as volume fraction) of methanol.
Hydrophobicity of the compounds was also studied on a reversed-phase Symmetry C18 column (150 × 4.6 mm, 3.5 µm particle size) obtained by Waters (Milford, MA, USA). Methanol-phosphate-buffered saline mixtures were used as mobile phases. The methanol volume fraction was varied from 10% to 50% in 5% steps. Each mobile phase was shaken vigorously, filtrated through cellulose nitrate filter (0.45 μm, Sartorius, Goettingen, Germany) and degassed by sonication (5 min) before use.

A short description of series [3]: Phospholipid binding assay (IAM-HPLC, IAM.PC.DD2 column). Format: physicochemical. The conditions noted are these: for log kw IAM, chromatographic parameter of lipophilicity obtained by IAM-HPLC: phosphate-buffered saline pH 7.4 without organic modifier, 25 °C. The method, then: The binding of compounds to the immobilized artificial membrane (IAM) was measured using commercially available immobilized phosphatidylcholine columns (IAM.PC.DD2, 100 x 4.6 mm, […]) obtained by Regis Technologies (Morton Grove, IL, USA). The mobile phase consisted of phosphate-buffered saline that was filtrated through cellulose nitrate filter and degassed (5 min) by sonication before use.

For series [4], the system named is α1-acid glycoprotein (AGP). The experiment in a line: Protein binding assay, AGP-HPLC (Chiralpak-AGP column). Conditions: phosphate buffer pH 7.0/iso-propanol gradient, 25 °C.
Procedure: (§1) In this study, the gradient retention times are standardized using a calibration set of compounds with known percentage of plasma protein binding data (PPBlit).
(§2) Validation of the methods was performed by evaluation of retention of warfarin enantiomers. As retention time on HSA and AGP columns is dependent on the injected amount of compound, the smallest possible amount of sample was injected so that the compound would not saturate the specific binding site.
(§3) The interactions of analytes with plasma proteins human serum albumin (HSA) and α1-acid glycoprotein (AGP) have been measured using commercially available chemically bonded HSA (Chiralpak-HSA, 50 × 4.6 mm, 5 μm particle size) and AGP (Chiralpak-AGP, 50 × 4.6 mm, 5 μm particle size) columns obtained by ChromTech (Cedex, France). The mobile phase consisted of 20 mM potassium phosphate buffer with the pH adjusted to 7.0 (A) and iso-propanol (B). The gradient program was as follows: 0–3 min, linear gradient 0–30% B, 3–10 min, isocratic 30% B. The total run time was 15 min to allow re-equilibration of the protein phase with the buffer. Injection volume was set at 10 µL, and the measurements were carried out at 25.0 ± 0.1 °C and at flow rate 1.5 mL/min. The absorbance of the analytes during a chromatographic run was collected at the following wavelengths: 250, 280, 300, 320 and 340 nm.
Series [5] concerns the target human serum albumin (HSA) (Homo sapiens, UniProt P02768). The experiment in a line: Protein binding assay, HSA-HPLC (Chiralpak-HSA column). Format: in vitro ADME. Conditions: phosphate buffer pH 7.0/iso-propanol gradient, 25 °C.
Procedure: as §1, §2, §3
For series [6] the following is noted: higher levels of NaOH than 0.02 M (0.05 M and 0.1 M).
The nature of series [7]: Extraction solvent evaluation / solubility. The format is physicochemical. The method, then:
Protocols utilizing aqueous or organic solvent extraction solutions (acidic, alkaline or neutral pH) combined with at ambient and elevated temperatures shaking and sonication procedures have all been reported. Therefore, one-variable-at-a-time method was applied to find a ubiquitous method suitable for all investigated analytes. […] Folic acid in solution is known to decompose when exposed to ultraviolet light and/or increased temperature; thus, all experiments were performed at ambient temperature using amber laboratory glassware.

Molecules are shown by their SMILES.

The source of these data is paper PMC6803969, “Pharmacokinetic Profiling and Simultaneous Determination of Thiopurine Immunosuppressants and Folic Acid by Chromatographic Methods” (Molecules, 2019).

Sequence of human serum albumin (HSA) (P02768 25-609): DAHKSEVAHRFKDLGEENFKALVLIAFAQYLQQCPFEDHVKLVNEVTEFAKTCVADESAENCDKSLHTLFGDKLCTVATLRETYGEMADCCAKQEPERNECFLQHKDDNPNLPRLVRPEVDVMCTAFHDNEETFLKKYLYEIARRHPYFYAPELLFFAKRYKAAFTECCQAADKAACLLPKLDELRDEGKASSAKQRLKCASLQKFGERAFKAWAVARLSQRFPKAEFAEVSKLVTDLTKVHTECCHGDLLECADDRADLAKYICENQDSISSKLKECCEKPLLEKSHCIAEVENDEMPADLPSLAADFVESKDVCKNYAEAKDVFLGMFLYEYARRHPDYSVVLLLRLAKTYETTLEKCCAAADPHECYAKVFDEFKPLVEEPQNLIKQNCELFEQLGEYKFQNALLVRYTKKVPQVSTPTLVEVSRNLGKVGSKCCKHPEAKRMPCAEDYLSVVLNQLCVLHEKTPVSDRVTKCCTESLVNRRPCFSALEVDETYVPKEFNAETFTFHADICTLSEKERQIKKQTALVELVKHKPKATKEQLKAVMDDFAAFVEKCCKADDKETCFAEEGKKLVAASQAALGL

For the compound `Sc1ncnc2nc[nH]c12` [6-mercaptopurine], the “RMw, chromatographic parameter of hydrophobicity obtained by RP-TLC” value (shortened to “RMw, chromatographic parameter”) in series [1] is 0.23. In addition, in series [2], the “log kw C18, chromatographic parameter of hydrophobicity obtained by RP-HPLC” value (“log kw C18, chromatographic parameter” below) is on record as 0.45. The “log kw IAM, chromatographic parameter of lipophilicity obtained by IAM-HPLC” value (from here on “log kw IAM, chromatographic parameter”) in series [3] is −0.19. Further, in series [4], the “PPBAGP, percentage of analyte bound to α1-acid glycoprotein (AGP) obtained by AGP-HPLC” value (shortened to “PPBAGP, percentage of analyte bound”) turned out to be 22.15%.

In the case of `Nc1nc2nc[nH]c2c(=S)[nH]1` [6-thioguanine], the “RMw, chromatographic parameter” value in series [1] is 0.21. Further, the “log kw C18, chromatographic parameter” value in series [2] is 0.32. Besides, in series [3], the “log kw IAM, chromatographic parameter” value is 0.03. For the same compound, in series [5], the “PPBHSA, percentage of analyte bound to human serum albumin (HSA) obtained by HSA-HPLC” value (shortened to “PPBHSA, percentage of analyte bound”) worked out at 24.11%. Further, the “PPBAGP, percentage of analyte bound” value in series [4] was found to be 45.96%.

Turning to `Cn1cnc([N+](=O)[O-])c1Sc1ncnc2nc[nH]c12` [Azathioprine, azathioprine], in series [1], the “RMw, chromatographic parameter” value is recorded as 1.41. The “log kw C18, chromatographic parameter” value in series [2] is recorded as 1.34. Also, in series [3], the “log kw IAM, chromatographic parameter” value is 0.68. Besides, in series [5], the “PPBHSA, percentage of analyte bound” value is on record as 49.22%. Moreover, the “stability in NaOH extraction solution” value in series [6] is given as “degradation”. Moreover, the “PPBAGP, percentage of analyte bound” value in series [4] is reported as 75.96%.

In the case of `Nc1nc2ncc(CNc3ccc(C(=O)N[C@@H](CCC(=O)O)C(=O)O)cc3)nc2c(=O)[nH]1` [Folic acid, folic acid], in series [1], the “RMw, chromatographic parameter” value is listed as 0.57. The “log kw C18, chromatographic parameter” value in series [2] was 0.99. Moreover, in series [3], the “difference between log kw C18 and log kw IAM values” stood at 1.25. For the same compound, the “log kw IAM, chromatographic parameter” value in series [3] is reported as −0.26. The “PPBHSA, percentage of analyte bound” value in series [5] is recorded as 69.40%. Moreover, the values for the solubility result in series [7] (in basic aqueous solutions) and in series [7] (in organic solvents as well as in water) were “soluble in basic aqueous solutions” and “slightly soluble”, respectively. Further, the extraction efficiency was determined as 4.6% in series [7] (in methanol) and 22.4% in series [7] (in water). For the same compound, the “PPBAGP, percentage of analyte bound” value in series [4] is 3.45%.
